Positions of bridges follow the written chain, without caps; N, C: chain ends. Non-standard residues stand in square brackets, D forms with d. Residues, ends and D or L forms follow the SMILES beside them. *: point of attachment. Trp(7-(3-AcNH-Ph)) = CC(=O)Nc1cccc(-c2cccc3c(C[C@H](N)C(=O)O)c[nH]c23)c1; Me3N+(CH2)2O(CH2)2O(CH2)2CO = C[N+](C)(C)CCOCCOCCC(=O)*; CH2CH2OCH2CH2OCH2CH2NMe3+ = C[N+](C)(C)CCOCCOCC*; Trp(7-Me) = Cc1cccc2c(C[C@H](N)C(=O)O)c[nH]c12; X28 = CCCCCCCCCCCCCCCC[N+](C)(C)CCc1cn(CC*)nn1; 3Oxa8azabicyclo(3.2.1)octane = C1CC2COCC1N2*; Hexanoyl(6-NMe3+) = C[N+](C)(C)CCCCCC(=O)*; dLys(Me3) = C[N+](C)(C)CCCC[C@@H](N)C(=O)O; 3Pal(5-Me) = Cc1cncc(C[C@H](N)C(=O)O)c1; X9 = COCCOCCOCC[N+](C)(C)CCc1cn(CC*)nn1; 2Nal = N[C@@H](Cc1ccc2ccccc2c1)C(=O)O; AEF = NCCOc1ccc(C[C@H](N)C(=O)O)cc1; 3Pal = N[C@@H](Cc1cccnc1)C(=O)O; Ethyl(2-guanidino) = N=C(N)NCC*; Lys(Me) = CNCCCC[C@H](N)C(=O)O; Pen = CC(C)(S)[C@H](N)C(=O)O; Nle = CCCC[C@H](N)C(=O)O; Thp = NC1(C(=O)O)CCOCC1; Me2NCH2CH2 = CN(C)CC*; Sar = CNCC(=O)O
Target: T1, IL-23R (Homo sapiens, UniProt Q5VWK5)
T1 construct: host or cells: HEK293
T1 sequence (Q5VWK5 24-629): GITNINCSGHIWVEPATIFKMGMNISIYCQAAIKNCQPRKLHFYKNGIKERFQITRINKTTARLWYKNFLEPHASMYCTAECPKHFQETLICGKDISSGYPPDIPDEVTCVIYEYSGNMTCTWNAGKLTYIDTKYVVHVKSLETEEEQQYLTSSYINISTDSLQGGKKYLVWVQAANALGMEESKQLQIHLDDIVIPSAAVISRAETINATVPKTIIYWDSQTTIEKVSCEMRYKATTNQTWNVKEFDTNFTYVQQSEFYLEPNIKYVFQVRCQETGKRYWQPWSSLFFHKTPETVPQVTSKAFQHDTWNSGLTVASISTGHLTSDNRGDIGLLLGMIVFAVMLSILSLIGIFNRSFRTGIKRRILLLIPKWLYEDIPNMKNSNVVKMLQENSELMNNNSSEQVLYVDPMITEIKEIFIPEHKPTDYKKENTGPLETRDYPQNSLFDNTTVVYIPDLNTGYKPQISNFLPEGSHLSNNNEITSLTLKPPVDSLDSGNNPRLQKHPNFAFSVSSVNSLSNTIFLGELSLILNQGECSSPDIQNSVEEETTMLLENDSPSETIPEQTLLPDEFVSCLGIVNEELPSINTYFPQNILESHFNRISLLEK
Assay: IL23R Reporter Assay
Assay type: cell-based
Details: HEK293 cells containing IL-23R, IL-12RP1 and STAT-inducible firefly luciferase reporter; 10 ng/mL IL-23 (EC90); 5 h at 37° C.; read-out: IL23R Reporter Assay

IC50 [nM] | Compound
1.4 | CCCC[C@H](NC(=O)C1(NC(=O)[C@H](Cc2ccc3ccccc3c2)NC(=O)[C@H](Cc2ccc(OCCOCCOCC[N+](C)(C)C)cc2)NC(=O)[C@H]2NC(=O)[C@H](CCCCN(C)C(C)=O)NC(=O)[C@H](Cc3c[nH]c4c(C)cccc34)NC(=O)[C@H]([C@@H](C)O)NC(=O)[C@H](CC(=O)N(C)C)NC(=O)[C@@H](NC(=O)CCOCCOCC[N+](C)(C)C)C(C)(C)SSC2(C)C)CCOCC1)C(=O)N[C@@H](CC(N)=O)C(=O)N[C@@H](Cc1cccnc1)C(=O)N(C)CC(=O)N(C)C [compound 520, cPEG3aCO-Pen(3)-N(N(Me)2)-T-7MeW-K(NMeAc)-Pen(3)-APEG3F-2Nal-THP-Nle-N-3Pya-Sar-CON(Me)2] ({Me3N+(CH2)2O(CH2)2O(CH2)2CO}-[Pen]D(NMe2)T[Trp(7-Me)][Lys(Me)](Ac)[Pen]Y(CH2CH2OCH2CH2OCH2CH2NMe3+)[2Nal][Thp][Nle]N[3Pal][Sar]-NMe2; disulfide 1-6)

System: not listed separately
Assay: Exposed Polar Surface Area (EPSA)
Assay type: physicochemical
Details: SFC on Chirex 3014 column; sample 1 mM DMSO stock; read-out: EPSA
Summary of the method: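 Retention-based polarity: supercritical CO2 with 20 mM ammonium formate in MeOH (5–60%, 20%/min), Chirex 3014 column, 35 °C. Calibrated against 8 standards to give EPSA (Å^2); each sample measured twice.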

Compound | EPSA [A^2]
CNC(=O)C[C@H](NC(=O)[C@H](CCCCNC(C)=O)NC(=O)C1(NC(=O)[C@H](Cc2ccc3ccccc3c2)NC(=O)[C@H](Cc2ccc(OCCN)cc2)NC(=O)[C@H]2NC(=O)[C@H](CCCCNC(C)=O)NC(=O)[C@H](Cc3c[nH]c4c(C)cccc34)NC(=O)[C@H]([C@@H](C)O)NC(=O)[C@H](CC(N)=O)NC(=O)[C@@H](NC(C)=O)C(C)(C)SSC2(C)C)CCOCC1)C(=O)N[C@@H](Cc1cccnc1)C(=O)N(C)CC(N)=O [compound 48] (Ac-[Pen]NT[Trp(7-Me)]K(Ac)[Pen][AEF][2Nal][Thp]K(Ac)D(NHMe)[3Pal][Sar]-NH2; disulfide 1-6) | 184
CCCCCCCCCCCCCCCC[N+](C)(C)CCc1cn(CCOc2ccc(C[C@H](NC(=O)[C@H]3NC(=O)[C@H](CCCCNC(C)=O)NC(=O)[C@H](Cc4c[nH]c5c(C)cccc45)NC(=O)[C@H]([C@@H](C)O)NC(=O)[C@H](CC(N)=O)NC(=O)[C@@H](NC(C)=O)C(C)(C)SSC3(C)C)C(=O)N[C@@H](Cc3ccc4ccccc4c3)C(=O)NC3(C(=O)N[C@@H](CCCCNC(C)=O)C(=O)N[C@@H](CC(N)=O)C(=O)N[C@@H](Cc4cccnc4)C(=O)N(C)CC(N)=O)CCOCC3)cc2)nn1 [compound 259] (Ac-[Pen]NT[Trp(7-Me)]K(Ac)[Pen]Y(X28)[2Nal][Thp]K(Ac)N[3Pal][Sar]-NH2; disulfide 1-6) | 149
CC(=O)NCCCC[C@@H]1NC(=O)[C@H](Cc2c[nH]c3c(C)cccc23)NC(=O)[C@H]([C@@H](C)O)NC(=O)[C@H](CC(N)=O)NC(=O)[C@@H](NC(C)=O)C(C)(C)SSC(C)(C)[C@@H](C(=O)N[C@@H](Cc2ccc(OCCN)cc2)C(=O)N[C@@H](Cc2ccc3ccccc3c2)C(=O)NC2(C(=O)N[C@@H](CCC(=O)O)C(=O)N[C@@H](CC(N)=O)C(=O)N[C@@H](Cc3cccnc3)C(=O)N(C)CC(=O)N3C4CCC3COC4)CCOCC2)NC1=O [compound 115] (Ac-[Pen]NT[Trp(7-Me)]K(Ac)[Pen][AEF][2Nal][Thp]EN[3Pal][Sar]-{3Oxa8azabicyclo(3.2.1)octane}; disulfide 1-6) | 171
Cc1cccc2c(C[C@@H]3NC(=O)[C@H]([C@@H](C)O)NC(=O)[C@H](CC(=O)N(C)C)NC(=O)[C@@H](NC(=O)CCCCC[N+](C)(C)C)C(C)(C)SSC(C)(C)[C@@H](C(=O)N[C@@H](Cc4ccc(OCCN(C)C)cc4)C(=O)N[C@@H](Cc4ccc5ccccc5c4)C(=O)NC4(C(=O)N[C@@H](CCC(=O)N(C)C)C(=O)N[C@@H](CC(N)=O)C(=O)N[C@@H](Cc5cccnc5)C(=O)N(C)CC(=O)N(C)C)CCOCC4)NC(=O)[C@H](CCC(=O)N(C)C)NC3=O)c[nH]c12 [compound 91, 5cpaCO-Pen(3)-N(N(Me)2)-T-7MeW-Q(N(Me)2)-Pen(3)-AEF(N(Me)2)-2Nal-THP-Q(N(Me)2)-N-3Pya-Sar-CON(Me)2] ({Hexanoyl(6-NMe3+)}-[Pen]D(NMe2)T[Trp(7-Me)]E(NMe2)[Pen]Y(Me2NCH2CH2)[2Nal][Thp]E(NMe2)N[3Pal][Sar]-NMe2; disulfide 1-6) | 145
CC(=O)NCCCC[C@@H]1NC(=O)[C@H](Cc2c[nH]c3c(C)cccc23)NC(=O)[C@H]([C@@H](C)O)NC(=O)[C@H](CC(N)=O)NC(=O)[C@@H](NC(C)=O)C(C)(C)SSC(C)(C)[C@@H](C(=O)N[C@@H](Cc2ccc(OCCN)cc2)C(=O)N[C@@H](Cc2ccc3ccccc3c2)C(=O)NC2(C(=O)N[C@@H](CCCCNC(=O)CCCCC[N+](C)(C)C)C(=O)N[C@@H](CC(N)=O)C(=O)N[C@@H](Cc3cccnc3)C(=O)N(C)CC(N)=O)CCOCC2)NC1=O [compound 85] (Ac-[Pen]NT[Trp(7-Me)]K(Ac)[Pen][AEF][2Nal][Thp]K(Hexanoyl(6-NMe3+))N[3Pal][Sar]-NH2; disulfide 1-6) | 151
COCCOCCOCC[N+](C)(C)CCc1cn(CCOc2ccc(C[C@H](NC(=O)[C@H]3NC(=O)[C@H](CCCCNC(C)=O)NC(=O)[C@H](Cc4c[nH]c5c(C)cccc45)NC(=O)[C@H]([C@@H](C)O)NC(=O)[C@H](CC(N)=O)NC(=O)[C@@H](NC(C)=O)C(C)(C)SSC3(C)C)C(=O)N[C@@H](Cc3ccc4ccccc4c3)C(=O)NC3(C(=O)N[C@@H](CCCCNC(C)=O)C(=O)N[C@@H](CC(N)=O)C(=O)N[C@@H](Cc4cccnc4)C(=O)N(C)CC(N)=O)CCOCC3)cc2)nn1 [compound 260] (Ac-[Pen]NT[Trp(7-Me)]K(Ac)[Pen]Y(X9)[2Nal][Thp]K(Ac)N[3Pal][Sar]-NH2; disulfide 1-6) | 147

The remaining lines, values ahead:

EPSA [A^2] | Compound
210 | CC(=O)NCCCC[C@@H]1NC(=O)[C@H](Cc2c[nH]c3c(-c4cccc(NC(C)=O)c4)cccc23)NC(=O)[C@H]([C@@H](C)O)NC(=O)[C@H](CC(N)=O)NC(=O)[C@@H](NC(=O)[C@@H](CCCNC(=N)N)NC(=O)CCOCCOCC[N+](C)(C)C)C(C)(C)SSC(C)(C)[C@@H](C(=O)N[C@@H](Cc2ccc(OCCN)cc2)C(=O)N[C@@H](Cc2ccc3ccccc3c2)C(=O)NC2(C(=O)N[C@@H](CCC(=O)O)C(=O)N[C@@H](CC(N)=O)C(=O)N[C@@H](Cc3cncc(C)c3)C(=O)N(C)CC(N)=O)CCOCC2)NC1=O [compound 536, cPEG3aCO-r-Pen(3)-N-T-7(3NAcPh)W-K(Ac)-Pen(3)-AEF-2Nal-THP-E-N-5MePyridinAla-Sar-CONH2] ({Me3N+(CH2)2O(CH2)2O(CH2)2CO}-[dR][Pen]NT[Trp(7-(3-AcNH-Ph))]K(Ac)[Pen][AEF][2Nal][Thp]EN[3Pal(5-Me)][Sar]-NH2; disulfide 2-7)
184 | CCCCCCCCCCCCCC(=O)N[C@@H](CCC(=O)NCCOCCOCC(=O)NCCOCCOCC(=O)NCCCC[C@@H]1NC(=O)[C@H](Cc2c[nH]c3c(C)cccc23)NC(=O)[C@H]([C@@H](C)O)NC(=O)[C@H](CC(=O)N(C)C)NC(=O)[C@@H](NC(=O)[C@H](COCCOCC[N+](C)(C)C)NC(=O)COCCOCCNC(=O)COCCOCCNC(=O)CC[C@H](NC(=O)CCCCCCCCCCCCC)C(=O)O)C(C)(C)SSC(C)(C)[C@@H](C(=O)N[C@@H](Cc2ccc(OCCOCCOCC[N+](C)(C)C)cc2)C(=O)N[C@@H](Cc2ccc3ccccc3c2)C(=O)NC2(C(=O)N[C@@H](CCCCN(C)C(C)=O)C(=O)N[C@@H](CC(N)=O)C(=O)N[C@@H](Cc3cccnc3)C(=O)N(C)CC(=O)N(C)C)CCOCC2)NC1=O)C(=O)O (relative stereo) [compound 369, C14gEPEG2PEG2CO-APEG2Ser(S*)-Pen(3)-N(N(Me)2)-T-7MeW-K(PEG2PEG2gEC14)-Pen(3)-APEG3F-2Nal-THP-K(NMeAc)-N-3Pya-Sar-CON(Me)2]
198 | CC(=O)NCCCC[C@@H]1NC(=O)[C@H](Cc2c[nH]c3c(-c4cccc(NC(C)=O)c4)cccc23)NC(=O)[C@H]([C@@H](C)O)NC(=O)[C@H](CC(N)=O)NC(=O)[C@@H](NC(=O)[C@@H](CCCC[N+](C)(C)C)NC(C)=O)C(C)(C)SSC(C)(C)[C@@H](C(=O)N[C@@H](Cc2ccc(OCCNC(=N)N)cc2)C(=O)N[C@@H](Cc2ccc3ccccc3c2)C(=O)NC2(C(=O)N[C@@H](CCC(=O)O)C(=O)N[C@@H](CC(N)=O)C(=O)N[C@@H](Cc3cncc(C)c3)C(=O)N(C)CC(N)=O)CCOCC2)NC1=O [compound 480, MeCO-k(Me)3-Pen(3)-N-T-7(3NAcPh)W-K(Ac)-Pen(3)-AEF(G)-2Nal-THP-E-N-5MePyridinAla-Sar-CONH2] (Ac-[dLys(Me3)][Pen]NT[Trp(7-(3-AcNH-Ph))]K(Ac)[Pen]Y(Ethyl(2-guanidino))[2Nal][Thp]EN[3Pal(5-Me)][Sar]-NH2; disulfide 2-7)
